13 molecules from patent EP0460883B1, “Process for beta-hydroxy-alpha-amino acids” (THE UNIVERSITY OF NOTRE DAME DU LAC, priority 1990, dated 1991) can be followed below.

Structures are written as SMILES.

In test [1] the test system is serine hydroxymethyltransferase (SHMT). As to the kind of experiment: Conversion of aldehyde substrates and glycine to β-hydroxy-α-amino acids by SHMT (HPLC assay). Type of test: biochemical, corn. Also on record: key: + = conversion; - = no detectable conversion. As to the method: (§1) The following Table 1 lists representative aldehyde substrates which were converted in the process to β-hydroxy-α-amino acids with SHMT from two sources. The conversion of the substrates in Table 1 was carried out by incubating the substrate and glycine with SHMT under the conditions of the process. A number of the process conditions used were common to all of the substrates and are detailed in the following paragraphs. Wherever exceptions occurred they are noted in each instance.
(§2) The incubations were carried out in 10 mM phosphate buffer, pH 7.3 containing pyridoxal 5′-phosphate at a concentration of about 80 µM. All solutions were prepared from distilled, deionized water for best results. The conversions were carried out at about 37°C in sealed, 500 µL polypropylene micro-centrifuge vials in a constant-temperature water bath. The vials were protected from light except when removed from the water bath for removal of aliquots for analysis. With all conversions an enzyme blank incubation was carried out in parallel with the SHMT incubation. The total volume of the incubation mixture was typically about 200 µL. The conditions in the blank were identical to those of the incubation mixture except for the absence of the enzyme.
(§3) The process can be monitored for production of the β-hydroxy-α-amino acid by removing aliquots from the incubation mixture from time to time and assaying the samples by HPLC separation and fluorescence detection of o-phthalaldehyde derived isoindoles of all primary amine compounds present in the mixture. The assay procedure is described by Jones, B.N.; Gilligan, J. P., J. Chrom. 1983, 266, 471; Jones, B. N. et al., J. Liq. Chrom. 1981, 4,565, and Simons, Jr., S. S. et al., J. Am Chem. Soc. 1976, 98, 7098. HPLC analysis of both the incubation mixture and the enzyme blank allowed determination of which peak(s) on the chromatograms could be assigned to enzyme products.
All of the following procedures were carried out at 4°C. Washed 5-7 day old corn seedlings were homogenized in a Waring blender in 100 mM potassium monohydrogen phosphate containing 1 mM disodium ethylenediaminetetraacetate (EDTA), 1 mM dithiothreitol, and 125 µM of pyridoxal 5'-phosphate. The mix contained approximately 960 g of seedlings per liter. The homogenate was filtered through cheese cloth and the filtrate was subjected to ammonium sulfate precipitation. The protein which precipitated with 35-50% saturation in ammonium sulfate upon centrifuging at 13,800 x g for 40 min. was dissolved in 10 mM phosphate buffer, pH 7.8, containing […] pyridoxal 5'-phosphate and 1 mM EDTA. The solution was dialyzed and concentrated to 5-15 mg of protein/ml in the same buffer without EDTA present. Assay for aldolase activity of the protein consisted of a coupled system between the aldolase-catalyzed retroaldol of L-allo-threonine with the NADH (reduced form of nicotinamide adenine dinucleotide) dependent reduction of the resulting acetaldehyde by yeast alcohol dehydrogenase (ADH). Specific activity averaged 78 milliunits/mg of protein. One unit of enzyme activity is defined as that amount of enzyme required to cause a change of one optical density unit (at 340 nm) per minute at room temperature in the presence of ADH, 120 mM L-allo-threonine, 125 µM PLP, and 120 µM NADH in 100 mM phosphate buffer, pH 7.5.

Test [2] addresses T1, serine hydroxymethyltransferase (SHMT) (Oryctolagus cuniculus, UniProt P07511).
T1 construct: Three such sources are rabbit liver (LaVerne Schirch and Merle Mason, J. Biol. Chem., Vol. 237, No. 8, August 1962); from tissue; host or cells: rabbit liver
T1 sequence (P07511 2-484 limits assumed): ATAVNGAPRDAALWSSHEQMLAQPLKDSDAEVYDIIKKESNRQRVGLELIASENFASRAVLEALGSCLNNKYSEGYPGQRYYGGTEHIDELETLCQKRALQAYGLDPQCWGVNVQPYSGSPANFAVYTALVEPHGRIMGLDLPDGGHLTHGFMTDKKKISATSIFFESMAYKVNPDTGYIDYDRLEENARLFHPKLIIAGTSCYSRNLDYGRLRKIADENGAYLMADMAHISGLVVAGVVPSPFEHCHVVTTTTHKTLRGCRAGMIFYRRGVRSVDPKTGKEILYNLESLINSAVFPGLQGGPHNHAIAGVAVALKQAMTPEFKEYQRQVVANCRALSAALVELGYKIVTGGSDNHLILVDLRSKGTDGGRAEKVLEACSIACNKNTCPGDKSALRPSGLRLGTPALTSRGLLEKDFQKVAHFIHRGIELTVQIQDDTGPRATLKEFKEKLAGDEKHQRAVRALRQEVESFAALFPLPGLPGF
Described as above. Set-up: key: + = conversion; - = no detectable conversion. Type of test: biochemical, rabbit. As to the method: as §1, §2, §3

Where [3] appears, read: incubation with glycine, 10 mM phosphate buffer pH 7.3, pyridoxal 5′-phosphate about 80 µM, about 37°C.

Take `COC(=O)CCC=O` [-CH2CH2CO2CH3, succinic semialdehyde methyl ester]: in test [1] (setting [3]), the “Aldehyde (RCHO) Substrates for SHMT, Enzyme Corn Seedlings” value (“Aldehyde … Enzyme Corn Seedlings” for short) is reported as “+”. For the same molecule, the “Aldehyde (RCHO) Substrates for SHMT, Enzyme Rabbit Liver” value (shortened to “Aldehyde … Enzyme Rabbit Liver”) in test [2] (setting [3]) was “+”. Turning to `O=CCOCc1ccccc1` [-CH2OCH2C6H5], the “Aldehyde … Enzyme Corn Seedlings” value in test [1] (setting [3]) is “+”. In the case of `O=CCCCOC=O` [-CH2CH2CH2OCHO, O-formyl 4-hydroxybutanal], the “Aldehyde … Enzyme Rabbit Liver” value in test [2] (setting [3]) is “+”. On to `CCC=O` [-CH2CH3, propionaldehyde], for which the “Aldehyde … Enzyme Corn Seedlings” value in test [1] (setting [3]) is recorded as “+”. Turning to `CCCC=O` [-CH2CH2CH3, n-butanal], the “Aldehyde … Enzyme Rabbit Liver” value in test [2] (setting [3]) is recorded as “+”. For the molecule `O=Cc1ccco1` [Example 2-furyl, 2-furfural], in test [1] (setting [3]), the “Aldehyde … Enzyme Corn Seedlings” value is given as “+”. Moreover, the “Aldehyde … Enzyme Rabbit Liver” value in test [2] (setting [3]) is “+”. Regarding `CC=O` [-CH3, acetaldehyde], in test [1] (setting [3]), the “Aldehyde … Enzyme Corn Seedlings” value is on record as “+”. Besides, the “Aldehyde … Enzyme Rabbit Liver” value in test [2] (setting [3]) is on record as “+”.

Take `O=CCCc1ccco1`: in test [1] (setting [3]), the “Aldehyde … Enzyme Corn Seedlings” value was “-”. Besides, in test [2] (setting [3]), the “Aldehyde … Enzyme Rabbit Liver” value is given as “+”. On to `COC(=O)CCCC=O` [-CH2CH2CH2CO2CH3, Glutaric semialdehyde methyl ester], for which the “Aldehyde … Enzyme Corn Seedlings” value in test [1] (setting [3]) was “+”. Moreover, the “Aldehyde … Enzyme Rabbit Liver” value in test [2] (setting [3]) is reported as “+”. As to `CC(=O)C=O` [-C(O)CH3, pyruvaldehyde], the “Aldehyde … Enzyme Corn Seedlings” value in test [1] (as the other substrates, but tetrahydrofolate was present) is on record as “+”. Besides, the “Aldehyde … Enzyme Rabbit Liver” value in test [2] (as the other substrates, but VO3- (metavanadate) was present) is recorded as “+”. Turning to `CC(C)OC(=O)CCC=O` [-CH2CH2CO2(CH3)2, succinic semialdehyde isopropyl ester], the “Aldehyde … Enzyme Rabbit Liver” value in test [2] (setting [3]) is given as “+”. Regarding `O=Cc1ccccc1` [Example C6H5, benzaldehyde], the “Aldehyde … Enzyme Corn Seedlings” value in test [1] (setting [3]) was “-”. The “Aldehyde … Enzyme Rabbit Liver” value in test [2] (setting [3]) was “+”. The like results for `O=CC(=O)O` [-CO2H] were, in that order, “-” and “-”.
